Source: patent US20250302913A1, “LACRIPEP PROMOTES NEUROREGENERATION AND MAINTAINS EPITHELIAL PROGENITOR CELL IDENTITY” (The Regents of The University of California, priority 2022, published 2025)

Columns and labels:
KRT14+ basal cells = assay: Basal progenitor identity (KRT14/KRT6A) and proliferation (Ki67) in cornea; type: in vivo, mouse; settings: 2 wks treatment; Aire KO cornea
Description: Although it has been well established that basal progenitor cells (also referred to as transit amplifying cells (13)) undergo mitosis and migration (14) to give rise to the barrier forming suprabasal epithelial and stratified squamous epithelial cells, the impact of dry eye disease on basal cell identity and differentiation remains largely unknown. Thus, we questioned whether basal cell identity was altered in the desiccated cornea through defining the cellular location of KRT6A, a marker of early epithelial cell differentiation in skin (15) and cultured cornea epithelial cells (16). Accordingly, we confirmed that KRT6A marks differentiated corneal epithelial cell types in vivo, as shown by its exclusive expression in KRT14-deficient suprabasal and superficial epithelial cells of healthy cornea at 7 wks of age (FIG. 1G). […] To determine if changes in cell identity alters progenitor cell division, we analyzed the percentage of proliferating K14+ basal cells in treated and untreated corneas. […]
Quantification of corneal epithelial basal progenitor identity and proliferation. The number of basal KRT14+ and KRT14+ KRT6A+ basal epithelial cells were counted in 350 μm sections of central cornea. […] The number of proliferating epithelial progenitors (Ki67+ KRT14+) was presented as a percentage of total KRT14+ cells counted in 350 μm sections of central cornea.

[1] = system: corneal nerves of Aire KO corneas; assay: Corneal nerve density (GAP43, TUBB3, SP, CGRP immunolabeling); type: in vivo, mouse
Description: To test for changes in innervation, corneas isolated from the four treatment groups at day 15 were immunostained for growth-associated protein 43 (GAP43), a marker of remodeling axons (25), along with two common sensory neuropeptides, substance P (SP) and calcitonin-gene related protein (CGRP). SP and CGRP are differentially expressed to carry out discrete functions: SP is released in response to trigeminal activation to modulate tear secretion and goblet cell function (26) while CGRP is involved in multiple homeostatic processes, including corneal epithelium regeneration and regulation of vasculature (27, 28). […] Thus, lacripep treatment successfully regenerates the sensory nerve supply to the inflamed cornea during disease progression.
Given nerve-epithelial interactions are essential for mediating physiological tear secretion, we next assessed innervation to corneal epithelial cell layers at 2 wks of treatment (day 15, 7 wks of age) through immunofluorescent analysis.
Next, we questioned the timing of epithelial reinnervation in response to lacripep treatment by analyzing the nerve supply at the 7 day time point (6 wks of age) through 3D imaging of intact whole mount corneas (FIG. 3A). […] Of note, the pro-regenerative cellular changes after axon injury result in neurons switching from an active, electrically transmitting state back to an electrically silent, growth-competent state (29-31), thereby likely impairing increased basal tear production at the 7 day time point for lacripep treated mice compared to untreated Aire KO controls (FIG. 1B).
For corneal whole mount staining, PFA fixed corneas were blocked and incubated in primary antibodies for 48 hr at 4° C.: Mouse anti-TUBB3 (1:300, R&D, MAB 1195), rabbit anti-GAP43 (1:400, Novus bio, NB 300-143), goat anti-CGRP (1:300, Thermo fisher, PA1-85250), and rat anti-Substance P (1:500, Millipore, MAB 356). This was followed by extensive washes in PBST before tissue was incubated in secondary antibodies overnight at 4° C.
Quantification of corneal epithelial nerve density and synapses. Tissue sections: TUBB3+ nerve density within 300 μm sections of central cornea epithelial ROI was quantified by applying Tsai's thresholding method (Moments), with integrated densities within the ROI of the thresholded image being recorded. Corneal whole mounts: The density of nerves expressing GAP43, TUBB3, or GAP43 and TUBB3 (% Area of 354 μm×396 μm) was quantified from central cornea images of whole mount cornea and plotted in a stacked bar graph to visualize the proportion of each of the three nerve types. Similarly, numbers of synapses marked by expression of GAP43, TUBB3, or GAP43 and TUBB3 were counted per respective region of central cornea (100 μm2) and plotted in a stacked bar graph. The density of GAP43+ nerves were quantified from the whole mount cornea images (354 μm×396 μm) applying Tsai's threshold as described above.
3D reconstruction of nerve fibers. Acquired confocal Z-stacks comprising epithelial and stroma were reconstructed into 3D images using Imaris image analysis software (Bitplane AG, Zurich, Switzerland). The surface of the nuclei (Hoechst) and nerves (TUBB3/GAP43/SP/CGRP) were segmented using the background subtraction threshold. Each channel was obtained separately. Touching nuclei were split by the calculated seed points inside each area.

syndecan-1 (SDC1) = target: T1, syndecan-1 (SDC1) (Homo sapiens, UniProt P18827); settings: cited from earlier work
T1 sequence (P18827 23-310): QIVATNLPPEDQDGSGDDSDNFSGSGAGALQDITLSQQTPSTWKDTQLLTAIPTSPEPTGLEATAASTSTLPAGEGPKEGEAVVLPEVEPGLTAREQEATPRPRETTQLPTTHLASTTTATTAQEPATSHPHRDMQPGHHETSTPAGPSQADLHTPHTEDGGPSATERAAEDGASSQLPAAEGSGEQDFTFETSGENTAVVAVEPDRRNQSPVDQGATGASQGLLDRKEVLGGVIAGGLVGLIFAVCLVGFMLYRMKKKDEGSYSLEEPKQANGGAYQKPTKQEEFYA

Substance: Ac-KQFIENGSEFAQKLLKKFSLLKPWA-NH2 [lacripep, amino terminus acetylated, carboxyl terminus aminated]
- basal cell identity (KRT6A in KRT14+ basal cells) (KRT14+ basal cells): returned to that of WT tissue
- proportion of GAP43+ TUBB3+ nerves in central cornea ([1]; day 7, WT 37%): 26%
- proportion of GAP43+ nerves in central cornea ([1]; day 7, WT 43%): 50%
- nerve density of central cornea relative to WT tissue ([1]; day 7, whole mount): 45 % of the nerve density of WT tissue
- nerve density level ([1]; day 15): returning to that of WT cornea
- innervation of epithelial cell layers (TUBB3+ axons) ([1]; day 15, central corneal cross-sections): resembled that of WT tissue
- density of GAP43+ nerve fibers expressing SP and CGRP ([1]; day 15, whole mount cornea): nearly equivalent to that of the WT controls
- binding and activation of syndecan-1 (syndecan-1 (SDC1)): bind and activate
